In patent publication US20240246937A1 (MERCK SHARP & DOHME LLC, priority 2021, published 2024):

Biological target: recombinant IL4I1 (Homo sapiens (Human), UniProt Q96RQ9)
Experiment: IL4I1 Enzymatic Assay (Amplex Red/HRP coupled fluorescence detection of H2O2)
Assay type: biochemical
Conditions: 240 min; recombinant IL4I1, four-hour pre-incubation with compound
Protocol: Interleukin 4 inducible protein 1 (IL4I1) is an L-amino oxidase that catalyzes the oxidation of aromatic residues (Phe, Trp and Tyr): L-amino acid+H2O+O2→2-oxo acid+NH3+H2O2. Equal molar of H2O2 and the corresponding alpha-ketoacid are produced when IL4I1 and substrate are added. In this assay, the hydrogen peroxide generated by IL4I1 is then detected through a coupled reaction with Amplex® Red (10-acetyl-3,7-dihydroxyphenoxazine) and horseradish peroxidase (HRP) to produce resorufin product that could be detected in the form of fluorescence signals. The assessment of the inhibitory effect of small molecules (EC50) on IL4I1 is measured by the effectiveness of the compounds to inhibit the production of H2O2.
Using this assay, the potency (EC50) of each compound was determined from a ten-point (1:3 serial dilution) titration curve using the following outlined procedure. To each well of a black flat-bottom Greiner (Cat #781076) 384 well-plate, 25 nL of compound (0.1% DMSO in final assay volume of 25 μL) was dispensed, followed by the addition of 12.5 μL of 1× assay buffer (50 mM Hepes 7.0 and 0.005% Tween20 (Sigma, Cat #P8341; low peroxide grade)) containing 2 nM of recombinant IL4I1 (R&D Systems, Cat #5684-AO-020). Plates were placed in an ambient temperature humidified chamber for a four-hour pre-incubation with compound. Subsequently, each reaction was initiated by the addition of 12.5 μL 1× assay buffer containing 2 mM of each aromatic amino acids (Phe/Tyr/Trp), 0.1 mM Amplex Red and 2 U/mL of HRP. The final reaction in each well of 25 μL consisted of 1 nM of IL4I1, 1 mM of each residues (Phe, Tyr and Trp), 0.05 mM Amplex Red and 1 U/mL of HRP. It should be noted that the concentrations of Amplex Red and HRP used here were in excess such that the conversion of H2O2 to resorufin product occurred instantaneously and was non-rate limiting. Reactions were allowed to proceed for 120 minutes followed by fluorescence readout on a Spectramax with the following set parameters: 544 nm excitation/590 nm emission, 570 nm cutoff (EnVision is an alternative reader). Dose-response curves were generated by plotting percent effect (% product conversion; Y-axis) vs. Log10 compound concentrations (X-axis). EC50 values were calculated using a non-linear regression, four-parameters sigmoidal dose-response model and are shown in Potency Table 1.

Chain of recombinant IL4I1 (Q96RQ9 22-567): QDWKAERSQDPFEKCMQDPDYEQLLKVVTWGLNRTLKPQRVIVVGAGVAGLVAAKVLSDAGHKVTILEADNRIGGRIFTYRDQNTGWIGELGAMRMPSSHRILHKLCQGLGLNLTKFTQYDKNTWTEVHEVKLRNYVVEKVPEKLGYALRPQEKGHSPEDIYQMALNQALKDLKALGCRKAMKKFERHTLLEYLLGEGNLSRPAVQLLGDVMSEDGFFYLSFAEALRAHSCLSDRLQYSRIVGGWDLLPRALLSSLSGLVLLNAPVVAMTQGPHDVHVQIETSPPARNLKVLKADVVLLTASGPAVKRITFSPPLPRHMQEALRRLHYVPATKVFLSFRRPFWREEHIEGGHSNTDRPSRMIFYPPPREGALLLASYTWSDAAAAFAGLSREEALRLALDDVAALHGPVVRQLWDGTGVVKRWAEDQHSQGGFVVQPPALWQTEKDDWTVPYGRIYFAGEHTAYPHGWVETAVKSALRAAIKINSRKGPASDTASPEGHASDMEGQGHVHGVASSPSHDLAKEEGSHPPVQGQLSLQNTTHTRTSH

Compound | EC50
O=C1C(=O)N(C23CC(C2)C3)CCN1Cc1ncc(-n2nccn2)cc1F [Example 405, 1-(bicyclo[1.1.1]pentan-1-yl)-4-((3-fluoro-5-(2H-1,2,3-triazol-2-yl)pyridin-2-yl)methyl)piperazine-2,3-dione] | 23 nM
O=c1c(=O)n(C23CC(C2)C3)ccn1Cc1cn(-c2ccccn2)nn1 [Example 427, 1-(bicyclo[1.1.1]pentan-1-yl)-4-((1-(pyridin-2-yl)-1H-1,2,3-triazol-4-yl)methyl)-1,4-dihydropyrazine-2,3-dione] | 19 nM
O=C1C(=O)N(C2CCCC2)CCN1Cc1ccc(-n2nccn2)nn1 [Example 322, 1-((6-(2H-1,2,3-triazol-2-yl)pyridazin-3-yl)methyl)-4-cyclopentylpiperazine-2,3-dione] | 28 nM
O=C1C(=O)N(C23CC(C2)C3)CCN1Cc1cc(-c2ccccc2)no1 [Example 171, 1-(bicyclo[1.1.1]pentan-1-yl)-4-((3-phenylisoxazol-5-yl)methyl)piperazine-2,3-dione] | 6 nM
O=c1c(=O)n(C2(CF)CC2)ccn1Cc1ccc(-c2nccs2)nn1 [Example 233, 1-(1-(fluoromethyl)cyclopropyl)-4-((6-(thiazol-2-yl)pyridazin-3-yl)methyl)-1,4-dihydropyrazine-2,3-dione] | 54 nM
CC1CN(C2CCC2)C(=O)C(=O)N1Cc1nnc(-c2ccccc2)s1 (single isomer, unassigned) [Example 437, (R or S)-1-cyclobutyl-5-methyl-4-((5-phenyl-1,3,4-thiadiazol-2-yl)methyl)piperazine-2,3-dione] | 34 nM
O=c1c(=O)n(C2CCC2)ccn1Cc1cc(-c2ccccc2F)on1 [Example 57, 1-cyclobutyl-4-((5-(2-fluorophenyl)isoxazol-3-yl)methyl)-1,4-dihydropyrazine-2,3-dione] | 3 nM
CC1(N2CCN(CC34CC(c5ccccc5)(C3)C4(F)F)C(=O)C2=O)CCC1 [Example 190, 1-((2,2-difluoro-3-phenylbicyclo[1.1.1]pentan-1-yl)methyl)-4-(1-methylcyclobutyl)piperazine-2,3-dione] | 31 nM
O=C1C(=O)N(C2CCC2)CCN1Cc1ccc(-n2ncnn2)cn1 [Example 176, 1-((5-(2H-tetrazol-2-yl)pyridin-2-yl)methyl)-4-cyclobutylpiperazine-2,3-dione] | 40 nM
O=c1c(=O)n(C23CC(F)(C2)C3)ccn1Cc1cc(-c2ccccn2)on1 [Example 208, 1-(3-fluorobicyclo[1.1.1]pentan-1-yl)-4-((5-(pyridin-2-yl)isoxazol-3-yl)methyl)-1,4-dihydropyrazine-2,3-dione] | 21 nM
O=C1C(=O)N(C2CCCC2)CCN1Cc1cc(-c2ccc(F)cc2)no1 [Example 162, 1-cyclopentyl-4-((3-(4-fluorophenyl)isoxazol-5-yl)methyl)piperazine-2,3-dione] | 4 nM
CC1(n2ccn(Cc3ccc(-n4cccn4)nc3)c(=O)c2=O)CC1 [Example 383, 1-((6-(1H-pyrazol-1-yl)pyridin-3-yl)methyl)-4-(1-methylcyclopropyl)-1,4-dihydropyrazine-2,3-dione] | 26 nM
CC1(n2ccn(Cc3ccc(-n4cccn4)cn3)c(=O)c2=O)CC1 [Example 381, 1-((5-(1H-pyrazol-1-yl)pyridin-2-yl)methyl)-4-(1-methylcyclopropyl)-1,4-dihydropyrazine-2,3-dione] | 40 nM
O=C1C(=O)N(C2CCCC2)CCN1Cc1nnc(N2CCCCC2)s1 [Example 309, 1-cyclopentyl-4-((5-(piperidin-1-yl)-1,3,4-thiadiazol-2-yl)methyl)piperazine-2,3-dione] | 41 nM
O=c1c(=O)n(C23CC(F)(C2)C3)ccn1Cc1ccc(-c2nccs2)nn1 [Example 205, 1-(3-fluorobicyclo[1.1.1]pentan-1-yl)-4-((6-(thiazol-2-yl)pyridazin-3-yl)methyl)-1,4-dihydropyrazine-2,3-dione] | 24 nM
